The record followed here is PMC3005762 (Chemical communications (Cambridge, England), 2010).

The experiment has as its target T1, DC-SIGN (Homo sapiens, UniProt Q9NNX6).
T1 sequence (Q9NNX6 59-404 limits assumed): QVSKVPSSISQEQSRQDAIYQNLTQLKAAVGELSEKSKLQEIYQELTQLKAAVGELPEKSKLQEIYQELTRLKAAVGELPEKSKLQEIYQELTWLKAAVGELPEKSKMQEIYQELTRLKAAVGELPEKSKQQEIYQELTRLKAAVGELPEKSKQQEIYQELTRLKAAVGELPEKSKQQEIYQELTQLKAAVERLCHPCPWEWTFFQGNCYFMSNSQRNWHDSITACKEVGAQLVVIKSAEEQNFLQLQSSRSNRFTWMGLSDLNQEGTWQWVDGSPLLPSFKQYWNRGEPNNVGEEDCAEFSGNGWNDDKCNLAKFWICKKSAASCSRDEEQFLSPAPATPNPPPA
It is filed as binding.

The structures appear in SMILES notation.

Compound `CC(=O)N[C@@H]1C(O)O[C@H](CO)[C@@H](O)[C@@H]1O` (stereo partly shown) [N-acetylmannosamine] gave a half-maximal inhibitory concentration (IC50) of 11.2 ± 0.7 mM.
